The values that follow come from patent publication US20140342914A1, “Method of Plant Growth with Bifenthrin” (priority 2013, published 2014).

The experiment deals with Corn seeds. Kind of experiment: Corn seedling growth enhancement, in-furrow application at different rates (Example 2). In kind it is in vivo. To be noted: average of 8 replications. From the text:
Ten corn seeds (Pioneer variety 33M53, treated with PONCHO® 250 Insecticide) were evenly spaced in a single, 2 cm deep, furrow in a planter box (25.5 cm by 11.5 cm) containing steam treated loam soil (pH 6.4, 4.3% organic matter. An aqueous suspension of CAPTURE® LFR Insecticide (17.5% bifenthrin) was sprayed as a T-band in-furrow application onto the uncovered seeds at a rate of 269 g ai/ha using a DeVries overhead track sprayer at a pressure of 40 psi and an application volume of 200 l/ha. The seeds were covered with soil and the planter boxes placed onto a lab cart with overhead lighting set at 14 hours on and 10 hours off and a room temperature of 21° C. Three replicate planter boxes (total of 30 seeds) were treated and three control planter boxes to which no CAPTURE® Insecticide was applied were included in the test. Each planter box was watered with 146 mL of tap water and re-watered with 50 mL of tap water along the furrow at 4 days after treatment (DAT). At four DAT there were 19 emerged seedlings in the treated planter boxes and 16 emerged seedlings in the untreated planter boxes. At five DAT all seeds had emerged and the seedlings were removed from the soil and the roots were gently rinsed in tap water to remove the soil. The seedlings were placed onto paper and the roots and shoots were measured from the seed to the tip of the tallest leaf and from the seed to the tip of the longest root and each seedling was weighed. Table 1 below summarizes the average shoot height; root length and seedling wet weight of the treated and untreated seeds.
In a manner similar to Example 1, Corn seeds were treated in-furrow with different rates of CAPTURE® LFR or test solutions of technical bifenthrin (96% purity) dissolved in acetone and diluted with distilled water containing 0.1% Tween® 20 (Polyoxylethylene-sorbitan monolaurate available from SigmaAldrich). There were 8 replications of each treatment including the untreated control. Table 2 below summarizes the average shoot height, root length and seedling weight of the treated and untreated seeds.

Each structure is given as a SMILES string.

As to `Cc1c(COC(=O)[C@@H]2[C@H](/C=C(\Cl)C(F)(F)F)C2(C)C)cccc1-c1ccccc1` (racemic) [Technical Bifenthrin, 2-methylbiphenyl-3-ylmethyl (Z)-(1RS)-cis-3-(2-chloro-3,3,3-trifluoroprop-1-enyl)-2,2-dimethyl cyclopropanecarboxylate], the “Root Length” value came to 20.8 cm (4.68 g ai/ha in-furrow); 20.7 cm (18.75 g ai/ha in-furrow); 21.5 cm (75 g ai/ha in-furrow); 21.8 cm (300 g ai/ha in-furrow); 22.3 cm (1200 g ai/ha in-furrow). Moreover, the “Seedling Weight” value (4.68 g ai/ha in-furrow) worked out at 1.1 gm; the “Seedling Weight” value (18.75 g ai/ha in-furrow) was determined as 1.1 gm; the “Seedling Weight” value (75 g ai/ha in-furrow) stood at 1.2 gm; the “Seedling Weight” value (300 g ai/ha in-furrow) is listed as 1.1 gm; the “Seedling Weight” value (1200 g ai/ha in-furrow) worked out at 1.2 gm. The “Shoot Height” value (4.68 g ai/ha in-furrow) is 9.2 cm; the “Shoot Height” value (18.75 g ai/ha in-furrow) stood at 9.5 cm; the “Shoot Height” value (75 g ai/ha in-furrow) came out at 9.6 cm; the “Shoot Height” value (300 g ai/ha in-furrow) worked out at 9.5 cm; the “Shoot Height” value (1200 g ai/ha in-furrow) is on record as 9.9 cm.
